Source: PubChem BioAssay (NCI)
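Each compound was tested at five concentrations against cells in 96-well plates for 48 hours. GI50: concentration for 50% inhibition of growth. TGI denotes the concentration required for complete inhibition of growth.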

Experiments:
Test in all cases: growth of human tumour cells (NCI), 48 h
COLO 205 colon = tested on: COLO 205 colon
MALME-3M melanoma = tested on: MALME-3M melanoma
SF-539 CNS = tested on: SF-539 CNS
SF-295 CNS = tested on: SF-295 CNS
UACC-62 melanoma = tested on: UACC-62 melanoma
OVCAR-5 ovarian = tested on: OVCAR-5 ovarian
OVCAR-4 ovarian = tested on: OVCAR-4 ovarian
U251 CNS = tested on: U251 CNS
LOX IMVI melanoma = tested on: LOX IMVI melanoma
SK-OV-3 ovarian = tested on: SK-OV-3 ovarian

| Compound | TGI (COLO 205 colon) | GI50 (MALME-3M melanoma) | TGI (MALME-3M melanoma) | TGI (SF-539 CNS) | TGI (SF-295 CNS) | TGI (UACC-62 melanoma) | TGI (OVCAR-5 ovarian) | TGI (OVCAR-4 ovarian) | TGI (U251 CNS) | TGI (LOX IMVI melanoma) | TGI (SK-OV-3 ovarian) | GI50 (OVCAR-4 ovarian) | GI50 (U251 CNS) | GI50 (LOX IMVI melanoma) |
| --- | --- | --- | --- | --- | --- | --- | --- | --- | --- | --- | --- | --- | --- | --- |
| N=C1C(=N)c2ccccc2-c2ccccc21.N=C1C(=N)c2ccccc2-c2ccccc21.N=C1C(=N)c2ccccc2-c2ccccc21.[Cl-].[Ru+2] | 6.87 µM | 1.79 µM | 3.29 µM | 3.27 µM | 3.23 µM | 3.5 µM | 18.6 µM | 2.85 µM | 3.08 µM | 7.94 µM | 6.91 µM | – | – | – |
| O=P1(c2ccccc2)Nc2ccccc2SSc2ccccc2N1 | 42.4 µM | – | 36.9 µM | 34.3 µM | 30.3 µM | 29.8 µM | 36.1 µM | 33.6 µM | 30.4 µM | 35.1 µM | 44.4 µM | – | – | – |
| COc1ccc2c(c1)CCCN2CCCCCCCCCCN(CCC(C)C)CCC(C)C | 26.6 µM | – | 28.1 µM | 11.1 µM | 27.4 µM | 27.1 µM | 28.4 µM | 19.4 µM | 26.6 µM | 29.1 µM | 40.9 µM | – | – | – |
| COc1ccc(/C(Cl)=C(\C=O)c2ccc(OC)cc2)cc1 | – | – | > 100 µM | > 100 µM | > 100 µM | > 100 µM | > 100 µM | > 100 µM | > 100 µM | > 100 µM | > 100 µM | – | – | – |
| CCCOC(=O)CNC(=O)OC(C)(C)C | > 100 µM | – | > 100 µM | > 100 µM | > 100 µM | > 100 µM | > 100 µM | > 100 µM | > 100 µM | > 100 µM | > 100 µM | – | – | – |
| NCCc1cc(O)c(O)cc1O | > 72.9 µM | – | > 74.1 µM | 44.3 µM | 49.3 µM | 74.9 µM | 61.3 µM | 25.6 µM | 28.5 µM | 40 µM | > 84.1 µM | 12.3 µM | 14 µM | 19.1 µM |
| CCOC(=O)c1c2c(n(Cc3ccccc3)c1C)C(=O)C(=O)c1ccccc1-2 | 1.69 µM | – | 0.191 µM | 0.521 µM | 0.984 µM | 1.65 µM | – | – | 2.03 µM | 0.482 µM | 5.76 µM | – | – | – |
| Nc1n[nH]c(=O)c2c1c(I)cn2C1OC(CO)C(O)C1O (centres undefined) | 7.81 µM | – | 17.3 µM | – | 9.74 µM | 13.3 µM | – | 14.4 µM | 4.19 µM | 10.6 µM | > 100 µM | – | – | – |
